What all share (type): cell-based
In test [1] the target is T1, α1β2 GABAA receptor (α1 subunit) (Homo sapiens, UniProt P14867+P47870).
T1 construct: gene GABRA1; recombinant α1β2 receptor (devoid of the γ subunit) in Xenopus laevis oocytes; with GABAA receptor β2 subunit (GABRB2)
T1 sequence (P14867 28-456): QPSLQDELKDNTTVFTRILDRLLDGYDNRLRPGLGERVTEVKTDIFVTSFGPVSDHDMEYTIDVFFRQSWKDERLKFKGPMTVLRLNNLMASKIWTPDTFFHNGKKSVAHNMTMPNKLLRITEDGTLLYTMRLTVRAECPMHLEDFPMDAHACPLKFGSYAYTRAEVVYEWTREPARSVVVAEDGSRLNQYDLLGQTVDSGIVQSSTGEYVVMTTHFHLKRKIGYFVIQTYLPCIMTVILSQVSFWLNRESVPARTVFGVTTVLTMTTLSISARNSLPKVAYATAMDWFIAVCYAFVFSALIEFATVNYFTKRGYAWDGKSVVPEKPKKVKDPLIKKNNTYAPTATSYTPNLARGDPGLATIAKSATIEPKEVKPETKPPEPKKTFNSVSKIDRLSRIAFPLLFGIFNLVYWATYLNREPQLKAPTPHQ
T1 sequence (P47870 26-512): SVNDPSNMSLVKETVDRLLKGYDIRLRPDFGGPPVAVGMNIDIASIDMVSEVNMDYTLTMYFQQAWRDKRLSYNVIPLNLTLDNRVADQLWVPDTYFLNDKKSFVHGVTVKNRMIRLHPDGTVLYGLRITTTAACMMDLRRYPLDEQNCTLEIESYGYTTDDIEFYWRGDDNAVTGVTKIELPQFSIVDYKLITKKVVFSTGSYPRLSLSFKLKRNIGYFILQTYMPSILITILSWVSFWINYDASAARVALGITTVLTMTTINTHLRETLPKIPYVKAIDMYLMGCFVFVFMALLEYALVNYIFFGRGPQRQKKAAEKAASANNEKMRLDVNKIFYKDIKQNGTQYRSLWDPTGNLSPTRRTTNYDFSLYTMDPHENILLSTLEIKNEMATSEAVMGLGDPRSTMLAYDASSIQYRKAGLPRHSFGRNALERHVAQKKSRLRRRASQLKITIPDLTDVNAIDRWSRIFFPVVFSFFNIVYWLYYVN
As to the kind of experiment: voltage clamp: block of CGS […] potentiation (data not shown); […] [3H]flumazenil displacement at […] in bovine membranes.

The target in test [2] is T1, α1β2 GABAA receptor (α1 subunit). As to the kind of experiment: voltage clamp: reduction of CGS […] potentiation (data not shown); […] [3H]flumazenil displacement at […] in bovine membranes.
In test [3] the target is T2, α1β2γ2L GABAA receptor (α1 subunit) (Homo sapiens, UniProt P14867+P18507).
T2 construct: gene GABRA1; recombinant α1β2γ2L receptor in Xenopus laevis oocytes; with GABAA receptor β2 (GABRB2) and γ2L (GABRG2) subunits
T2 sequence (P18507 40-475, one chain of several): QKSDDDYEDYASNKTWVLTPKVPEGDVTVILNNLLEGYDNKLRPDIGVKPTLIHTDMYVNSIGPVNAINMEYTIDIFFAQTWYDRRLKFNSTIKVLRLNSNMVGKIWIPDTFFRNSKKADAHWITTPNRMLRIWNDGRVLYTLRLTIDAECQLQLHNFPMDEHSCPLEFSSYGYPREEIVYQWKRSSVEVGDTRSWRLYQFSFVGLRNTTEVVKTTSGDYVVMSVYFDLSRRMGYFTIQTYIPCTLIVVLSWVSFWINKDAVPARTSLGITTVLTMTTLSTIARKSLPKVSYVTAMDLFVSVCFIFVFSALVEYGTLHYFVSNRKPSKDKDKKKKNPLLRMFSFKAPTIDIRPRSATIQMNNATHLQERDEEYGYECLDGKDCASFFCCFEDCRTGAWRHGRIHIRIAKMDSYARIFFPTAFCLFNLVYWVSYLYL
Description: two-electrode voltage clamp of GABA currents in oocytes; also […] [3H]flumazenil displacement at […] in bovine membranes. A general note: In two-electrode clamp one electrode senses voltage and the other passes current.

The record followed here is article PMC6470557, “Synthesis of New GABAA Receptor Modulator with Pyrazolo[1,5-a]quinazoline (PQ) Scaffold” (International Journal of Molecular Sciences, 2019).

As to `COc1ccc2cnc3c(-c4cccs4)cnn3c2c1` [5d, 3-(Thien-2-yl)-8-methoxypyrazolo[1,5-a]quinazoline], the “voltage clamp: block of CGS 9895 potentiation (data not shown); >80% [3H]flumaze” value in test [1] is “compounds 5d and 5e, which in the same test completely blocked or strongly reduced the potentiation of the GABAA receptor function”. Turning to `COc1ccc2cnc3c(-c4ccsc4)cnn3c2c1` [5e, 3-(Thien-3-yl)-8-methoxypyrazolo[1,5-a]quinazoline], the “voltage clamp: reduction of CGS 9895 potentiation (data not shown); >80% [3H]flu” value in test [2] was “compounds 5d and 5e, which in the same test completely blocked or strongly reduced the potentiation of the GABAA receptor function”.

Regarding `COc1ccc2cnc3c(C(=O)c4cccs4)cnn3c2c1` [6b, 3-(Thien-2-ylcarbonyl)-8-methoxypyrazolo[1,5-a]quinazoline], in test [3], the EC50 (commonly the concentration needed to bring the measured effect to its halfway point) was found to be 12 µM.
